Several values for one entry are separate records, joined by “and”; a condition that tells them apart may be missing. Equal values may be shown once.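 All cell lines were grown in 96-well plates and treated with compound for 48 hours. GI50: concentration for 50% inhibition of growth. The concentration for full growth arrest is given as TGI.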

Among the test systems are M14 melanoma; RXF 393 renal; BT-549 breast; HOP-92 NSCLC; MDA-MB-435; LOX IMVI melanoma; UACC-257 melanoma; HCT-15 colon; NCI-H460 lung; SK-MEL-5 melanoma.
Holding throughout (experiment): NCI tumour cell line growth inhibition, 48 h

As to `Cc1cnc(-c2ccc(-c3ccc(NC(=O)Nc4cccc(C(F)(F)F)c4)cc3F)c3c2C(=O)NC3)[nH]1`, the GI50 was 624 nM in the assay on M14 melanoma; 2420 nM in the assay on RXF 393 renal; 10.8 µM in the assay on BT-549 breast; 438 nM in the assay with HOP-92 NSCLC; 12600 nM in the assay with MDA-MB-435; 357 nM in the assay with LOX IMVI melanoma. The GI50 in the assay on UACC-257 melanoma is 13500 nM; in the assay with HCT-15 colon, 6.19 µM; in the assay with NCI-H460 lung, 304 nM; with SK-MEL-5 melanoma, 23.6 µM. The TGI was 32.9 µM with M14 melanoma; 21.3 µM with RXF 393 renal; 49.1 µM in the assay on BT-549 breast; 28.6 µM in the assay with HOP-92 NSCLC; over 47.5 µM in the assay with MDA-MB-435; 17.7 µM with LOX IMVI melanoma. The TGI was over 66 µM with UACC-257 melanoma, 33.6 µM with HCT-15 colon, 26.8 µM with NCI-H460 lung and over 65.6 µM with SK-MEL-5 melanoma.
Take `COC(=O)c1cc2c([nH]c3ccccc32)c(-c2nc3ccccc3cc2CO)n1`: the GI50 in the assay with M14 melanoma is over 100000 nM; in the assay on RXF 393 renal, 21600 nM; in the assay on BT-549 breast, over 100 µM; in the assay with HOP-92 NSCLC it was 53500 nM; in the assay with MDA-MB-435, over 100000 nM; in the assay on LOX IMVI melanoma, over 100000 nM. Further, the GI50 with UACC-257 melanoma was over 100000 nM; with HCT-15 colon, over 100 µM; in the assay on NCI-H460 lung it was over 100000 nM; in the assay with SK-MEL-5 melanoma, 50.3 µM. In addition, the TGI with M14 melanoma, with RXF 393 renal, with BT-549 breast, in the assay on HOP-92 NSCLC, with MDA-MB-435 and in the assay with LOX IMVI melanoma was over 100 µM each time. The TGI with UACC-257 melanoma, with HCT-15 colon, in the assay with NCI-H460 lung and in the assay on SK-MEL-5 melanoma was over 100 µM each time.
As for `CC(C)c1ccc(C(O)(C(=O)O)c2ccc(C(C)C)cc2)cc1`, the TGI with M14 melanoma, in the assay with RXF 393 renal, in the assay with BT-549 breast, with HOP-92 NSCLC, in the assay on MDA-MB-435 and in the assay on LOX IMVI melanoma was over 100 µM each time. For the same compound, the TGI with UACC-257 melanoma, with HCT-15 colon, with NCI-H460 lung and with SK-MEL-5 melanoma was over 100 µM each time.
For `CCCCNP1(NCCCC)=NP(NCCCC)(NCCCC)=NP(NCCCC)(NCCCC)=NP(NCCCC)(NCCCC)=N1`, the GI50 in the assay with M14 melanoma was 1080 nM; with RXF 393 renal, 1970 nM; with BT-549 breast, 4.08 µM; in the assay with HOP-92 NSCLC, 51.4 nM; in the assay on MDA-MB-435, 931 nM; in the assay with LOX IMVI melanoma, 290 nM. The GI50 in the assay on UACC-257 melanoma is 1230 nM; with HCT-15 colon, 21.2 µM; in the assay with NCI-H460 lung, 594 nM; with SK-MEL-5 melanoma, 0.541 µM. The TGI in the assay with M14 melanoma amounted to 5.23 µM; in the assay with RXF 393 renal, 10.2 µM; with BT-549 breast, 15.3 µM; in the assay with HOP-92 NSCLC, 0.917 µM; in the assay on MDA-MB-435, 6.51 µM; in the assay on LOX IMVI melanoma, 2.11 µM. In addition, the TGI with UACC-257 melanoma worked out at 5.55 µM; with HCT-15 colon, 99.5 µM; in the assay on NCI-H460 lung, 4.25 µM; in the assay on SK-MEL-5 melanoma, 1.89 µM.
`C=C1C(=O)O[C@H]2[C@H]1CC/C(CNC(=O)C(C)c1ccc(CC(C)C)cc1)=C\CC[C@@]1(C)O[C@@H]21` (stereo partly drawn): the GI50 is 1850 nM in the assay with M14 melanoma; 1310 nM in the assay with RXF 393 renal; 1.8 µM with BT-549 breast; 1500 nM in the assay with HOP-92 NSCLC; 1720 nM in the assay with MDA-MB-435; 1450 nM in the assay with LOX IMVI melanoma. The GI50 was 1560 nM in the assay on UACC-257 melanoma, 1.47 µM in the assay with HCT-15 colon, 1940 nM in the assay with NCI-H460 lung and 1.71 µM with SK-MEL-5 melanoma. Besides, the TGI worked out at 3.98 µM in the assay on M14 melanoma; 2.61 µM in the assay with RXF 393 renal; 4.45 µM with BT-549 breast; 2.92 µM in the assay with HOP-92 NSCLC; 3.76 µM in the assay on MDA-MB-435; 2.81 µM with LOX IMVI melanoma. Besides, the TGI in the assay with UACC-257 melanoma stood at 3.12 µM; in the assay on HCT-15 colon, 3.25 µM; with NCI-H460 lung, 3.97 µM; in the assay on SK-MEL-5 melanoma, 3.08 µM.
Take `CC(=O)OCC1OC([S-])C(OC(C)=O)C(OC(C)=O)C1OC(C)=O.[Au+].c1ccc(CN2[CH-]N(Cc3ccccc3)C(c3ccccc3)=C2c2ccccc2)cc1`: the GI50 in the assay on M14 melanoma was 2270 nM and 798 nM; in the assay on RXF 393 renal it was 1710 nM and 527 nM; in the assay with BT-549 breast it was 2.03 µM and 0.375 µM; in the assay on MDA-MB-435, 2940 nM and 860 nM; in the assay with LOX IMVI melanoma it was 1650 nM and 563 nM; in the assay with UACC-257 melanoma it was 2260 nM and 1000 nM. Moreover, the GI50 with HCT-15 colon was 1.8 µM and 0.906 µM; in the assay with NCI-H460 lung, 3710 nM and 732 nM; in the assay with SK-MEL-5 melanoma, 4.95 µM and 0.839 µM. The TGI in the assay on M14 melanoma is 5.66 µM and 3 µM; in the assay with RXF 393 renal it was 3.19 µM and 1.26 µM; in the assay on BT-549 breast it was 4.32 µM and 2.69 µM; in the assay with HOP-92 NSCLC, 3.93 µM and 0.437 µM; in the assay on MDA-MB-435, 10.4 µM and 3.36 µM; with LOX IMVI melanoma, 3.1 µM and 1.32 µM. Also, the TGI is 9.22 µM and 3.12 µM with UACC-257 melanoma; 3.68 µM and 2 µM in the assay with HCT-15 colon; 15.5 µM and 2.42 µM in the assay with NCI-H460 lung.
In the case of `N#Cc1ccc(C(=O)c2cnn(-c3ccc(F)cc3)c2N)cc1`, the GI50 was over 25000 nM with M14 melanoma; over 25000 nM in the assay on RXF 393 renal; over 25 µM with BT-549 breast; over 25000 nM in the assay with HOP-92 NSCLC; over 25000 nM with MDA-MB-435; over 25000 nM in the assay with LOX IMVI melanoma. Further, the GI50 was over 25000 nM in the assay on UACC-257 melanoma, over 25 µM with HCT-15 colon, over 25000 nM in the assay with NCI-H460 lung and over 25 µM with SK-MEL-5 melanoma. For the same compound, the TGI with M14 melanoma, in the assay on RXF 393 renal, in the assay with BT-549 breast, in the assay with HOP-92 NSCLC, in the assay with MDA-MB-435 and in the assay on LOX IMVI melanoma was over 25 µM throughout. For the same compound, the TGI with UACC-257 melanoma, in the assay with HCT-15 colon, in the assay with NCI-H460 lung and in the assay on SK-MEL-5 melanoma was over 25 µM in each case.
Consider `O=[N+]([O-])c1cc(C(F)(F)F)cc2n[se]nc12`, for which the TGI in the assay with M14 melanoma was found to be 3.22 µM; in the assay on RXF 393 renal, 4.91 µM; in the assay on BT-549 breast, 7.52 µM; in the assay with HOP-92 NSCLC it was 5.1 µM; with MDA-MB-435, 4.78 µM; in the assay with LOX IMVI melanoma, 14.4 µM. Also, the TGI is 4.56 µM in the assay with UACC-257 melanoma, 5.59 µM with HCT-15 colon, 26.6 µM with NCI-H460 lung and 8.02 µM with SK-MEL-5 melanoma.

For the origin of these results see PubChem BioAssay (NCI).
